In experiment [1] the test system is db/db mice. As to the kind of experiment: Serum EPO content of db/db mice. In kind it is in vivo, mouse. On the set-up: serum EPO content: unit not given here. Particulars: for serum EPO content: 6 weeks, db/db group 257.19±67.80 ng/L. From the text:
(§1) db/db mice are congenital obese type 2 DKD mice with spontaneous mutations in the leptin receptor (Leptin receptor, Lepr) due to a point mutation in the leptin receptor gene GT located on chromosome 4. The course of polyphagia, polyuria, diabetes and hyperglycemia is similar to that of humans, and it is currently the most widely used type 2 spontaneous animal model of DKD. The db/db mice have a series of complications with the aggravation of diabetes. The main pathological changes of renal tissue are the expansion of the glomerular mesangial interstitium, the thickening of the glomerular basement membrane, and the excessive accumulation of extracellular matrix. However, the glomerular mesangium of db/db mice changes relatively slowly, and the glomerular mesangium will not be dissolved or nodular glomerulosclerosis, and there is no progressive renal insufficiency.
(§2) Six-week-old db/db mice were purchased, and start the administration after adaptive feeding for 1 week (i.e., 7-week-old). TBN is administered twice a day (fixed by starting from 9:00-10:00 am and 3:00-4:00 pm, with an interval of 6 hours), and the positive control drug Losartan was administered once a day (fixed at 9:00-10:00 am) for 6 weeks.
At the end of the experiment, after rats were anesthetized, the blood was taken from the abdominal aorta, allowed to stand for 1 h, centrifuged at 3000 rmp for 10 min and with the supernatant collected, and serum erythropoietin levels were measured according to the kit instructions.

Experiment [2] deals with STZ-induced SHR rats. As to the kind of experiment: Serum iron ion content in STZ-induced SHR rats. Type of experiment: in vivo, rat. Particulars: TBN group (T60), 60 mg/kg. How it is done: (§3) 6 W-age SHR rats were abstained from food but not water for 12 h before injection, and then intraperitoneally injected with 55 mg/kg STZ after weighing (STZ required for fast injection, to be completed within 10 min), then put back to the cage to ensure that rat has sufficient drinking water in the period of 24 h, and the rats of normal control group were injected with citric acid buffer (pH 4.5) in the same volume. After 3 weeks of STZ injection, retinal venous blood was collected, and blood glucose ≥16.7 mmol/L was used as a molding standard, where the model of SHR rats that meet the above criteria is considered successful.
(§4) The route of administration is intragastrical, TBN is administered twice a day (fixed at 9:00-10:00 am and 3:00-4:00 pm), and Losartan is administered once a day (fixed at 9:00-10:00 am), continuously for 6 weeks.
At the end of the experiment, after rats were anesthetized, blood was taken from the rear abdominal aortic pulse, allowed to stand for 1 h, centrifuged at 3000 rmp centrifuged for 10 min to collect supernatant, and the iron ion content was measured by using an automated biochemical device and the level of red cells in serum was detected by using kits.

Experiment [3] relates to STZ-induced SHR rats. The experiment is described as follows: PAS staining, glomerular hardening of STZ-induced SHR rats. In kind it is in vivo, rat. Conditions: 60 mg/kg. The procedure: as §3, §4
The process is the same as in Example 9.

Experiment [4] deals with STZ-induced DKD rats. The experiment is described as follows: PAS staining, glomerular sclerosis index, STZ-induced DKD rats. Type of experiment: in vivo, rat. Conditions: all doses of TBN (10, 30, 60 mg/kg twice/day); Losartan 10 mg/kg once/day; 6 weeks; P<0.001 vs Vehicle. How it is done: Before the injection, the rats were fasted for 12 hours without water. After weighing, the rats were injected with 55 mg/kg STZ intraperitoneally (STZ needs to be injected quickly, and the injection was completed within 10 minutes), and then returned to the cage to ensure that the rats had sufficient drinking water for 24 hours. Rats were injected with an equal volume of citrate buffer (pH 4.5). After STZ injection for 3 weeks, blood was collected from the tail vein, and blood glucose ≥16.7 mmol/L was used as the criteria for the standard of the rats.
The route of administration is intragastric administration. TBN was administered twice a day (fixed at 9:00-10:00 am and 3:00-4:00 pm), and Losartan was administered once a day (fixed at 9:00-10:00 am) continuously for 6 weeks.
At the end of the experiment, kidney tissues were quickly separated, fixed with 4% paraformaldehyde and embedded in paraffin, serially sliced, 5 μm each, dried at 37° C. for 1 h, and then stained with PAS. The process is briefly as follows: paraffin sections are taken out of the 65° C. oven and immediately placed in xylene for deparaffinization and gradient alcohol rehydration, followed by periodic acid treatment for 5 min and Schiff treatment for 10 min, and then differentiation is performed with differentiation solution for 10 s. […]

Experiment [5] concerns STZ-induced DKD rats. As to the kind of experiment: Body weight, water intake and food intake of STZ-induced DKD rats. In kind it is in vivo, rat. The procedure:
(§5) SD rats (200±10 g) were used as model animals, which were fasted for 12 h before injection. STZ was dissolved in citrate buffer at 1% concentration, and rats were fasted and intraperitoneally injected with 55 mg/kg STZ and placed in the cage, the rats being ensured with adequate water intake for 24 h. STZ injections need to be fast and complete within 10 minutes of injection. The normal control group was injected with an equal volume of pH 4.5 citric acid-sodium citrate buffer. The state of the animals (multiple drinking and polyuria) was observed. After 3 weeks of STZ injection, blood was collected from the tail vein, and fasting blood glucose ≥16.7 mmol/L was measured as the standard for diabetic nephropathy in rats.
(§6) DKD rats were randomly assigned to 6 groups and given with different drugs. After 6 weeks of administration, the experiment was terminated and the protective effect of the drug on DKD rats was observed.
The general condition and body weight changes after rat modeling were observed weekly. The general conditions include the activity, mental state, coat color, diet, water intake and urine volume of the rats. The amount of water and the amount of feed were recorded weekly.

Experiment [6] concerns STZ-induced DKD rats. The experiment is described as follows: Retinopathy of STZ-induced DKD rats. Conditions: DKD rats after treatment, Table 1 (FIG. 5). In kind it is in vivo, rat. How it is done: as §5, §6
During the experiment, the retinopathy of rats was observed during daily administration, and the dates of retinopathy in different groups of rats were recorded.

For a further experiment, the system named is EPO mRNA. As to the kind of experiment: EPO mRNA by RT-PCR in CoCl2-induced HepG2 cell hypoxia model. Conditions: 30 μM, 24 h, HepG2 cells, 50 μM CoCl2.
For experiment [7], the system named is db/db mice. As to the kind of experiment: Serum iron content of db/db mice. Conditions: for iron content in the serum: 6 weeks, db/db model group 28.13±4.46. The arrangement: iron content in the serum: unit not given here. In kind it is in vivo, mouse.
Excerpt: as §1, §2
At the end of the experiment, serum iron content was measured by using automatic biochemical analyzer.

Consider `Cc1nc(C)c(/C=[N+](\[O-])C(C)(C)C)nc1C` [TBN], for which the results for the “serum EPO content” value with db/db mice [1] (10 mg/kg) and with db/db mice [1] (30 mg/kg) were 265.04±79.32 and 288.80±36.78, respectively. The “increase in serum EPO content compared with positive control drug” value in the experiment with db/db mice [1] (each dose group of TBN) is on record as “stronger than that of the positive control drug”. Further, in the experiment with db/db mice [1] (spontaneous db/db mice, TBN administration), the “serum EPO level” value is listed as “tendency to increase”. For the same molecule, the “content of iron ions in serum vs model group” value in the experiment with STZ-induced SHR rats [2] is reported as “significantly increased”. Further, the “degree of glomerular hardening (PAS) vs SHR-STZ group” value in the experiment with STZ-induced SHR rats [3] was “significantly lower”. In addition, the glomerular sclerosis index result in the experiment with STZ-induced DKD rats [4] is “significantly reduce”. Besides, the body weight result in the experiment with STZ-induced DKD rats [5] (STZ-induced diabetic nephropathy rats, FIG. 1a) was “no effect”. For the same molecule, the water intake result with STZ-induced DKD rats [5] (vs model group, FIG. 1b) is “significantly lower”. The food intake result in the experiment with STZ-induced DKD rats [5] (vs model group, FIG. 1c) is recorded as “significantly lower”. Besides, the number of retinopathy result with STZ-induced DKD rats [6] was “reduced”. Besides, the “time when retinopathy occurred” value in the experiment on STZ-induced DKD rats [6] is “relatively delayed”. Further, in the experiment with EPO mRNA, the “expression of EPO mRNA” value is recorded as “significantly increase”. Also, the “iron content in the serum” value in the experiment with db/db mice [7] (10 mg/kg) is recorded as 30.84±5.92; in the experiment with db/db mice [7] (30 mg/kg) it was 36.20±11.89. Besides, in the experiment with db/db mice [7] (each dose group of TBN vs Losartan), the “effect of increasing iron ions compared with positive control drug” value is given as “stronger than the positive control drug group”.

The values above are taken from US12377095B2, “Use of ligustrazine nitrone derivatives in treatment and prevention of diabetic complication diseases” (QINGDAO HAILAN PHARMACEUTICALS CO., LTD., priority 2019, dated 2025).
